Measurements: ChEMBL document CHEMBL1201862, “PubChem BioAssay data set” (2004)
Calls of active or inactive are those of the source.

How the values were obtained:
[1] = target: T1, Short transient receptor potential channel 4 (Mus musculus, UniProt Q9QUQ5); assay: mouse TRPC4 channel inhibitors, dose response, cell-based, HEK293 TRPC4/mu-opioid, Fluo-4 calcium (AID 434942); format: functional;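 note: potency of inhibitors blocking the TRPC4 calcium response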
T1 sequence (Q9QUQ5 whole entry): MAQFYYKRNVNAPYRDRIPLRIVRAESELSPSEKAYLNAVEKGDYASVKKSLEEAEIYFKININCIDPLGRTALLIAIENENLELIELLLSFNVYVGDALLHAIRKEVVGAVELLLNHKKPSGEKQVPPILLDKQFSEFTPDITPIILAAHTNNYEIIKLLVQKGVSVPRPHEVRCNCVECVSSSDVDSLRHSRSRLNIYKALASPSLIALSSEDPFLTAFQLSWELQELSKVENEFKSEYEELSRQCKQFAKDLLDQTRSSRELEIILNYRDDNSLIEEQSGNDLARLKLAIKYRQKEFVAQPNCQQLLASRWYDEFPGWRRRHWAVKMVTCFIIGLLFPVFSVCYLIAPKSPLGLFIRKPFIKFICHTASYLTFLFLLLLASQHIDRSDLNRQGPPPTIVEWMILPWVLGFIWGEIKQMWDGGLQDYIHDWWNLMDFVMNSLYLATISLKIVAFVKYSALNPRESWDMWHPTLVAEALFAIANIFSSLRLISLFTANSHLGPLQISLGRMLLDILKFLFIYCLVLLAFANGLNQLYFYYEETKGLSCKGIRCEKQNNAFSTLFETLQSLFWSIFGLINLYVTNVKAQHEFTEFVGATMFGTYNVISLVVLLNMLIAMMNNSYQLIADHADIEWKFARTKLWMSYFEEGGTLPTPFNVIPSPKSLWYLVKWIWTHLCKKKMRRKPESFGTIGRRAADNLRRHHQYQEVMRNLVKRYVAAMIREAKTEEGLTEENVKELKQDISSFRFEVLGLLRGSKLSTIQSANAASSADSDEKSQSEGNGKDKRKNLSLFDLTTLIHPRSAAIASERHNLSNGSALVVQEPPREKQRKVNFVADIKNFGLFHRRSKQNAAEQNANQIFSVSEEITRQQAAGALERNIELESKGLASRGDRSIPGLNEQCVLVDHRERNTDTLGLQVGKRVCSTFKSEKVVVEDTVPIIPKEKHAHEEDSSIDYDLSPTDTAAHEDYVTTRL

[2] = Shn3 3'UTR reporter inhibitors, dose response, cell-based, Clone20 osteoblasts, firefly luciferase, cherry-picked (AID 624132); format: functional;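 note: firefly luciferase luminescence from reporter carrying the Shn3 3'UTR in osteoblasts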
[3] = HepG2 cell cytotoxicity, dose response, cytotoxicity control for Shn3 inhibitor project, CellTiter-Glo, cherry-picked (AID 624134); format: functional, cell-based
[4] = control 3'UTR Renilla luciferase suppression, dose response, counter-screen for Shn3 inhibitor project, cell-based, Clone20-Shn3RL, cherry-picked (AID 624133); format: functional
Protein Wnt-3a = Protein Wnt-3a (Mus musculus, UniProt P27467); assay: Wnt3a-driven reporter signaling inhibition, dose response, selectivity assay for Gli-SUFU antagonist project, Wnt-LIGHT cells, luminescence (AID 651570); format: functional; conditions: read-out: IC50_Mean;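 note: Wnt-LIGHT reporter cells stimulated with conditioned medium from Wnt3a-producing cells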
Nonstructural protein 1 = Nonstructural protein 1 (Influenza A virus, UniProt Q194T2); format: functional, Influenza A virus (A/California/07/2009(H1N1))
[5] = cytotoxicity in HEK-293T cells, dose response, cytotoxicity control for BCR NF-kB inhibitor project, luminescence, B-cell screen hits (AID 489021); format: functional, cell-based;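 note: HEK-293T cells carrying an NF-kB luciferase reporter; cells exposed to compound for about 14 hours before viability readout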
[6] = target: T2, Ubiquitin-conjugating enzyme E2 N (Homo sapiens, UniProt P61088); format: functional;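 note: Dose-response confirmation in a TR-FRET assay detecting UBC13-driven polyubiquitin chain formation, inhibition measured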
T2 sequence (P61088 whole entry): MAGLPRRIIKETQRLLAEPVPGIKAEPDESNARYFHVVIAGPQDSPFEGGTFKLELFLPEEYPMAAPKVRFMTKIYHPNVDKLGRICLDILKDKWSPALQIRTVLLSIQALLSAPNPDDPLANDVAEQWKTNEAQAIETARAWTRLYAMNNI

P388/ADR = assay: cells; format: functional; conditions: Mus musculus
SN12K1 = assay: cells; format: functional; conditions: Homo sapiens
P388 = assay: cells; format: functional; conditions: Mus musculus
[7] = target: T3, Histone-lysine N-methyltransferase NSD2 (Homo sapiens, UniProt O96028); format: biochemical
T3 sequence (O96028 whole entry): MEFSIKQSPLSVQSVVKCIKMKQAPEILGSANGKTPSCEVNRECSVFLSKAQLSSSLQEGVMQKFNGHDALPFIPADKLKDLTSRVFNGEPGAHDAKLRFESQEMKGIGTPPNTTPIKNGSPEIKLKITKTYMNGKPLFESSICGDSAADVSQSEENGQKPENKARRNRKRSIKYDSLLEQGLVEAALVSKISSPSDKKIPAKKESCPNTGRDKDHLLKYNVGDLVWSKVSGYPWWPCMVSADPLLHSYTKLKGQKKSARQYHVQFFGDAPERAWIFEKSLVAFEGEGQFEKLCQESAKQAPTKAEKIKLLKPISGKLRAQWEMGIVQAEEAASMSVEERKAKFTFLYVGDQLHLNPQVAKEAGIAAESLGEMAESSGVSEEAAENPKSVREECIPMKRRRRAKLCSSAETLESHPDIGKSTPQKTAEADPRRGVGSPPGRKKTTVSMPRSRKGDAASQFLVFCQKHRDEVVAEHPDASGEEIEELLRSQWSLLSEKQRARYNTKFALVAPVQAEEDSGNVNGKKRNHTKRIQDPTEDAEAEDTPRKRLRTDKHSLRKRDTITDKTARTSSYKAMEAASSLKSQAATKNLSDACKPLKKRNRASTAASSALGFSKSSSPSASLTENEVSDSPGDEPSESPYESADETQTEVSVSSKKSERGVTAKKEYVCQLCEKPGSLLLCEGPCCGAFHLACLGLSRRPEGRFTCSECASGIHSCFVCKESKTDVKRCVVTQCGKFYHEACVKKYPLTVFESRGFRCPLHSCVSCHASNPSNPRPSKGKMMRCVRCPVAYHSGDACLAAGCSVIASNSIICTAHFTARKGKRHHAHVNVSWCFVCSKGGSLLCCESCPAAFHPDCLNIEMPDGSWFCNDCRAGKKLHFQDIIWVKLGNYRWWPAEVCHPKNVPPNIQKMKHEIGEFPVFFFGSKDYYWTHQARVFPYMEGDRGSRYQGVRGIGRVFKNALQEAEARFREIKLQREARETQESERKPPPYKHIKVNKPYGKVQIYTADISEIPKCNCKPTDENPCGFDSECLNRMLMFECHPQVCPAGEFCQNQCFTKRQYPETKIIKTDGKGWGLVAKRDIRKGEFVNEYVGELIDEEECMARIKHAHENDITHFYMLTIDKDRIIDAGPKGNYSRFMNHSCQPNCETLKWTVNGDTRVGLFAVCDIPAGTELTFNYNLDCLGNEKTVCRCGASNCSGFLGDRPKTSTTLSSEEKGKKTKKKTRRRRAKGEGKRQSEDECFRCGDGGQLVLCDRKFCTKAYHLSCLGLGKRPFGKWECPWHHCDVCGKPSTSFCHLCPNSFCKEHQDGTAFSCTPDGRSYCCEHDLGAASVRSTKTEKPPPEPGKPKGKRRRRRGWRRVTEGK

Sequence of Nonstructural protein 1 (Q194T2 whole entry): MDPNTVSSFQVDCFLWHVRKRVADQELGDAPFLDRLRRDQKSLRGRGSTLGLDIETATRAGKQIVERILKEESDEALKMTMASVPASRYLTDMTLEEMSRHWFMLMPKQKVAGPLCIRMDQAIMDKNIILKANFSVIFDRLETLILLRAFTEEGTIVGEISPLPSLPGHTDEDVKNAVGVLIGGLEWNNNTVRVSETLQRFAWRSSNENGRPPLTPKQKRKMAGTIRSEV
Sequence of Protein Wnt-3a (P27467 whole entry): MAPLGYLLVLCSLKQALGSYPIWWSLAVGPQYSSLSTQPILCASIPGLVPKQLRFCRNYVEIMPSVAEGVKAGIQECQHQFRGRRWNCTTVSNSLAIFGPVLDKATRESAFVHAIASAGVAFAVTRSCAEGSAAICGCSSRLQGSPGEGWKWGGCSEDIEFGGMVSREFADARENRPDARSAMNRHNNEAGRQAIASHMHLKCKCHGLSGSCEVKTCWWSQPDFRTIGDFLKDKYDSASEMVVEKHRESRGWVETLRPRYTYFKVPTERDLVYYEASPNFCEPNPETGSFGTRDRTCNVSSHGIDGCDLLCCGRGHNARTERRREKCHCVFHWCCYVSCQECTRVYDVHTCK

Structure (SMILES) | GI50 (P388/ADR) | GI50 (SN12K1) | GI50 (P388) | also measured
CCN(CC)C(=O)C1CCCN(Cc2cccc(Oc3ccccc3)c2)C1 (centres undefined) | – | – | – | EC50 [1]: 2.37 µM (active)
CN(C)C(CNC(=O)c1ccccc1OCc1ccc(Cl)cc1)c1ccco1 (centres undefined) | – | – | – | EC50 [1]: 0.0947 µM (active)
CN(CCOc1ccc(Cl)cc1)C(=O)c1cccc(S(=O)(=O)N2CCN(c3ccc(F)cc3)CC2)c1 | – | – | – | AC50 [2]: 1.77 µM (active); AC50 [3]: 2.46 µM (active); AC50 [4]: 6.21 µM (active); IC50 (Protein Wnt-3a): 8.36 µM (active)
O=C(CN1CC(=O)Oc2ccccc21)OCC(=O)c1ccc(Br)cc1 | – | – | – | IC50 (Nonstructural protein 1): 1.61 µM (active)
CCN(CC(=O)Nc1c(F)cccc1F)C(=O)C1(c2ccccc2)CC1 | – | – | – | IC50 [5]: > 80 µM (inactive)
Cc1ncc(S(=O)(=O)c2ccc(Cl)cc2)c(N)n1 | – | – | – | IC50 [6]: > 20 µM (inactive)
CNC(=O)OCc1c(CO)nc(SC)n1C | > 100 µM (inactive) | > 100 µM (inactive) | > 100 µM (inactive) | –
O=C(O)c1ccccc1/N=C/c1ccc(N(CCCl)CCCl)cc1 | 24.8 µM (inactive) | > 100 µM (inactive) | 19.2 µM (inactive) | –
NN | 68.5 µM (inactive) | 96.8 µM (inactive) | 105 µM (inactive) | –
Brc1ccc2[nH]c3c(C4=NCCC4)nccc3c2c1 | 9.57 µM (inactive) | 9.98 µM (inactive) | 9.51 µM (inactive) | –
C#CCN1CCN(C(=S)N/N=C(\C)c2ccccn2)CC1 | < 0.01 µM (active) | 0.01 µM (active) | < 0.01 µM (active) | –
O=C(CCCCCN1C(=O)C2C3C=CC(C3)C2C1=O)Nc1ccc2ncccc2c1 (centres undefined) | – | – | – | AC50 [7]: 8.81 µM (active)
Cc1n[nH]c(=S)n(/N=C/c2ccccn2)c1=O | – | – | – | IC50 (Nonstructural protein 1): 6.08 µM (active)
CC(C)=CC1C(C(=O)O)C1(C)C (centres undefined) [CHRYSANTHEMIC ACID] | 488 µM (inactive) | > 750 µM (inactive) | > 750 µM (inactive) | –
